Patent US20070231288A1, “COSMETIC USE OF D-RIBOSE AND METHOD THEREOF” (LM Cosmetics, priority 2006, published 2007)

Key:
[1] = system: normal human epidermal fibroblasts in culture; assay: Effect of D-ribose on in vitro production of ATP by skin cells under hypoxia; format: cell-based; details: 0.05% D-ribose, after 6 hours of severe hypoxia (oxygen <2%), 24 h pre-treatment
Procedure: The inventors measured the effect of D-ribose on the production of ATP by the normal human epidermal fibroblasts in culture, under conditions of hypoxia. The cellules used are flask inoculations of normal human epidermal fibroblasts in DMEM medium with 10% FCS, incubation at 37° C., 5% CO2 and RH>95% up to 80% confluency. On Day 1, a first measurement of the level of ATP is taken on the untreated, unstressed NHDF. Pre-treatment for 24 hours with 0.05% of ribose versus an untreated control condition, 2 series in hexaplicate according to conditions. On Day 2, before the induction of hypoxia: stopping a series in order to measure the ATP level before hypoxia over all conditions (treated and untreated). The cells of the 2nd series were placed in suspension, the culture medium was renewed by DMEM 10% FCS supplemented with Hepes buffer (to maintain the pH at physiological conditions during hypoxia) and with EDTA (to prevent cell agglutination). The cells are placed in a incubator adjusted to 37° C., RH>95% the atmosphere of which has previously been replaced with nitrogen. Incubation for 6 hours under conditions of severe hypoxia (oxygen <2%) in the presence of 0.05% D-ribose versus an untreated control condition. Recovery of the cells and measurement of the quantity of ATP in the treated and untreated cells.

[2] = system: normal human dermal fibroblasts in culture (NHDF); assay: Effect of D-ribose on in vitro skin cell respiration (BD Oxygen Biosensor System); format: cell-based; details: 0.05% D-ribose, after 2 hours of contact
Procedure: The inventors measured the effect of D-ribose on the mitochondrial and cytosolic respiration of normal human dermal fibroblasts in culture (NHDF). The cells used are fibroblasts cultured at 37° C., 5% CO2, in DMEM medium, 10% FCS (foetal calf serum). The NHDF cultured in monolayer are placed in suspension and distributed in the wells of a special plate of the “BD Oxygen Biosensor System” kit. The bottom of the well is constituted by a membrane on which a molecule is grafted the fluorescence of which is inhibited by the oxygen dissolved in the incubation medium. The fluorescence increases in proportion to the oxygen consumed by the cells. 0.05% D-ribose is added in six wells. The intensity of fluorescence is measured in kinetic mode. The rate of respiration is calculated from measurements of the intensity of fluorescence.

Structure (SMILES): O=C[C@H](O)[C@H](O)[C@H](O)CO [D-ribose]
- ATP level re-established [1]: 19%
- increase in the cytosolic respiration [2]: 37%
- increase in the mitochondrial respiration [2]: 31%
